{"source": "patent US11485737B2", "about": "“Diaryl substituted 5,5-fused ring compounds as C5aR inhibitors” (CHEMOCENTRYX, INC., priority 2017, dated 2022)", "target": "T1, C5aR (Homo sapiens, UniProt P21730)", "T1 construct": "U937 cells are a monocytic cell line which express C5aR; host or cells: U937 cells (cAMP-treated overnight)", "T1 sequence (P21730 1-350)": "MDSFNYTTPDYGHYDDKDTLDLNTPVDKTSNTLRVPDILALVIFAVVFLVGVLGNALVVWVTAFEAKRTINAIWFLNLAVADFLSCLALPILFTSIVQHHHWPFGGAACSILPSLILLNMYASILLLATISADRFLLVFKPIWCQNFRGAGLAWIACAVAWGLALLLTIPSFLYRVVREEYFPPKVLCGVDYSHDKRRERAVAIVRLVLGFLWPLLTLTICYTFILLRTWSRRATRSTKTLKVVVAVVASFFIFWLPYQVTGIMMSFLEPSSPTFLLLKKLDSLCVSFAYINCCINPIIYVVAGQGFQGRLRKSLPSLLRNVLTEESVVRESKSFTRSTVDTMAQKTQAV", "experiment": "Chemotaxis assay using U937 cells (C5a-induced migration)", "assay_type": "cell-based", "details": "chemotaxis (migration) of U937 cells towards C5a; read-out: Mig IC50", "description": "U937 cells are a monocytic cell line which express C5aR, and are available from ATCC (VA). These cells were cultured as a suspension in RPMI-1640 medium supplemented with 2 mM L-glutamine, 1.5 g/L sodium bicarbonate, 4.5 g/L glucose, 10 mM HEPES, 1 mM sodium pyruvate, and 10% FBS. Cells were grown under 5% CO2/95% air, 100% humidity at 37° C. and subcultured twice weekly at 1:6 (cells were cultured at a density range of 1×10^5 to 2×10^6 cells/mL) and harvested at 1×10^6 cells/mL. Prior to assay, cells are treated overnight with 0.5 mM of cyclic AMP (Sigma, OH) and washed once prior to use. cAMP treated U937 cells can be used in C5aR ligand binding and functional assays.\nOptionally, compounds may be further assayed for their ability to inhibit chemotaxis in cells. Chemotaxis assays are performed using 5 μm pore polycarbonate, polyvinylpyrrolidone-coated filters in 96-well chemotaxis chambers (Neuroprobe; Gaithersburg, Md.) using chemotaxis buffer (Hank's balanced salt solution (HBSS) and 1% FBS). C5aR ligands (i.e., C5a, R&D Systems; Minneapolis, Minn.) are use to evaluate compound mediated inhibition of C5aR mediated migration. Other chemokines (i.e., SDF-1α; R&D Systems; Minneapolis, Minn.) are used as specificity controls. The lower chamber is loaded with 29 μl of chemokine (i.e., 0.03 nM C5a) and varying amounts of compound; the top chamber contains 100,000 U937 or neutrophil cells in 20 μl. The chambers are incubated 1.5 hours at 37° C., and the number of cells in the lower chamber quantified either by direct cell counts in five high powered fields per well or by the CyQuant assay (Molecular Probes), a fluorescent dye method that measures nucleic acid content and microscopic observation.\nThe compounds in Table 1, below, were prepared using the methods described above. Characterization data is provided for each compound listed. Activity is provided as follows for the chemotaxis assay using U937 cells as described herein (Example 7): +, 500 nM<IC50; ++, 50 nM<IC50<500 nM; +++, 5 nM<IC50<50 nM; and ++++, IC50<5 nM."}
{"smiles": "CCc1cccc(CC)c1-n1nc2c(c1-c1cc(Cl)c(NC(N)=O)cc1F)CN(Cc1ccc(C(F)(F)F)cc1C(F)(F)F)C2(C)C", "note": "[Compound 1.001, 1-(4-(5-(2,4-bis(trifluoromethyl)benzyl)-2-(2,6-diethylphenyl)-6,6-dimethyl-2,4,5,6-tetrahydropyrrolo[3,4-c]pyrazol-3-yl)-2-chloro-5-fluorophenyl)urea]", "values": [{"measurement": "IC50", "value": "< 0.005", "unit": "µM"}]}
{"smiles": "CCc1cccc(CC)c1-n1nc2c(c1-c1cc(F)c(NC(N)=O)cc1F)CN(Cc1cc(Cl)ccc1Cl)C2(C)C", "note": "[Compound 1.011]", "values": [{"measurement": "IC50", "value": "< 0.005", "unit": "µM"}]}
{"smiles": "Cc1ccc(N2Cc3nn(-c4c(C)cccc4C)c(-c4ccc(C(N)=O)cc4)c3C2)cc1C(F)(F)F", "note": "[Compound 1.039]", "values": [{"measurement": "IC50", "value": "> 0.5", "unit": "µM"}]}
{"smiles": "CCc1cccc(CC)c1-n1nc2c(c1-c1cc(F)c(NC(N)=O)cc1F)CN(C(=O)C(C)C)C2(C)C", "note": "[Compound 1.016, 1-(4-(2-(2,6-diethylphenyl)-5-isobutyryl-6,6-dimethyl-2,4,5,6-tetrahydropyrrolo[3,4-c]pyrazol-3-yl)-2,5-difluorophenyl)urea]", "values": [{"measurement": "IC50", "value": "0.005 to 0.05", "unit": "µM"}]}
{"smiles": "COc1cccc(C)c1-n1nc2c(c1-c1ccc(NC(N)=O)cc1)CN(c1cc(C(C)(C)C)ccc1C)C2", "note": "[Compound 1.052]", "values": [{"measurement": "IC50", "value": "> 0.5", "unit": "µM"}]}
{"smiles": "Cc1ccc(C(C)(C)C)cc1N1Cc2nn(-c3c(C)cccc3C)c(-c3ccc(C(N)=O)cc3)c2C1=O", "note": "[Compound 1.031]", "values": [{"measurement": "IC50", "value": "0.005 to 0.05", "unit": "µM"}]}
{"smiles": "CCc1cccc(CC)c1-n1nc2c(c1-c1cc(F)c(NC(N)=O)cc1F)CN(C(=O)CC(C)C)C2(C)C", "note": "[Compound 1.012]", "values": [{"measurement": "IC50", "value": "< 0.005", "unit": "µM"}]}
{"smiles": "CCc1cccc(CC)c1-n1nc2c(c1-c1cc(F)c(NC(N)=O)cc1F)CN(CC(C)(C)C(F)(F)F)C2(C)C", "note": "[Compound 1.004, 1-(4-(2-(2,6-diethylphenyl)-6,6-dimethyl-5-(3,3,3-trifluoro-2,2-dimethylpropyl)-2,4,5,6-tetrahydropyrrolo[3,4-c]pyrazol-3-yl)-2,5-difluorophenyl)urea]", "values": [{"measurement": "IC50", "value": "< 0.005", "unit": "µM"}]}
{"smiles": "Cc1ccc(C(C)(C)C)cc1N1Cc2nn(-c3c(C)cccc3C)c(-c3ccc(C(=O)NC4CCCC4)cc3)c2C1", "note": "[Compound 1.042]", "values": [{"measurement": "IC50", "value": "> 0.5", "unit": "µM"}]}
{"smiles": "CCc1cccc(CC)c1-n1nc2c(c1-c1cc(F)c(NC(N)=O)cc1C)CN(CC1(C)COC1)C2(C)C", "note": "[Compound 1.008]", "values": [{"measurement": "IC50", "value": "0.005 to 0.05", "unit": "µM"}]}
{"smiles": "COc1cccc(C)c1-n1nc2c(c1-c1ccc(NC(N)=O)cc1)CN(C(=O)NC(C)(C)C)C2", "note": "[Compound 1.032]", "values": [{"measurement": "IC50", "value": "> 0.5", "unit": "µM"}]}
{"smiles": "Cc1cccc(C)c1-n1nc2c(c1-c1ccc(C(N)=O)cc1)CN(c1ccc(C(F)(F)F)c(Cl)c1)C2=O", "note": "[Compound 1.020]", "values": [{"measurement": "IC50", "value": "> 0.5", "unit": "µM"}]}
{"smiles": "Cc1cccc(C)c1-n1nc2c(c1-c1ccc(NC(N)=O)cc1)CN(C(=O)OC(C)(C)C)C2", "note": "[Compound 1.029]", "values": [{"measurement": "IC50", "value": "> 0.5", "unit": "µM"}]}
{"smiles": "Cc1cccc(C)c1-n1nc2c(c1-c1ccc(C(N)=O)cc1)CN(C(=O)NC(C)(C)C)C2", "note": "[Compound 1.033]", "values": [{"measurement": "IC50", "value": "> 0.5", "unit": "µM"}]}
{"smiles": "Cc1cccc(C)c1-n1nc2c(c1-c1ccc(C(N)=O)cc1)CN(c1cc(C(C)(C)C)ccn1)C2", "note": "[Compound 1.028]", "values": [{"measurement": "IC50", "value": "> 0.5", "unit": "µM"}]}
{"smiles": "COc1cccc(C)c1-n1nc2c(c1-c1ccc(N)cc1)CN(c1cc(C(C)(C)C)ccc1C)C2", "note": "[Compound 1.055]", "values": [{"measurement": "IC50", "value": "0.005 to 0.05", "unit": "µM"}]}
{"smiles": "CCc1cccc(CC)c1-n1nc2c(c1-c1cc(F)c(NC(N)=O)cc1F)CN(C(=O)C(C)CC)C2(C)C", "note": "(stereo not shown) [Compound 1.013]", "values": [{"measurement": "IC50", "value": "< 0.005", "unit": "µM"}]}
{"smiles": "CCc1cccc(CC)c1-n1nc2c(c1-c1cc(F)c(NC(N)=O)cc1F)CN(Cc1ccccc1C(F)(F)F)C2(C)C", "note": "[Compound 1.014]", "values": [{"measurement": "IC50", "value": "< 0.005", "unit": "µM"}]}
{"smiles": "Cc1ccc(C(C)(C)C)cc1N1Cc2nn(-c3c(C)cccc3C)c(-c3ccc(C(N)=O)cc3)c2C1", "note": "[Compound 1.047]", "values": [{"measurement": "IC50", "value": "< 0.005", "unit": "µM"}]}
{"smiles": "Cc1cccc(C)c1-n1nc2c(c1-c1ccc(C(N)=O)cc1)CN(c1ccc(F)cc1C(C)C)C2", "note": "[Compound 1.034]", "values": [{"measurement": "IC50", "value": "0.05 to 0.5", "unit": "µM"}]}
{"smiles": "Cc1cc(C(N)=O)ccc1-c1c2c(nn1-c1c(C)cccc1C)CN(c1cc(C(C)(C)C)ccc1C)C2", "note": "[Compound 1.040]", "values": [{"measurement": "IC50", "value": "0.05 to 0.5", "unit": "µM"}]}
{"smiles": "CCc1cccc(CC)c1-n1nc2c(c1-c1cc(F)c(NC(N)=O)cc1C)CN(Cc1ccc(C(F)(F)F)cc1C(F)(F)F)C2(C)C", "note": "[Compound 1.010]", "values": [{"measurement": "IC50", "value": "< 0.005", "unit": "µM"}]}
